{"source": "patent US10301332B2", "about": "“Method of selectively releasing nitric oxide depending on change in pH using calcium phosphate” (INSTITUTE FOR BASIC SCIENCE, priority 2015, dated 2019)", "experiment": "Release of nitric oxide depending on pH (Sievers NOA nitric oxide detector)", "type": "physicochemical", "details": "1 mg in 40 ml DPBS, pH 7.4 (FIG. 8)", "method": "FIGS. 8 to 10 illustrate results obtained using a nitric oxide detector (Sievers NOA, GE analytical instruments, USA) in order to confirm a nitric oxide release behavior of the synthesized CaP—NO depending on the change in pH. FIG. 8 illustrates a result of observing the nitric oxide release behavior after adding 1 mg of AEATS to 40 ml of Dulbecco's Phosphate-Buffered Saline (DPBS, pH 7.4). […] FIG. 9 illustrates a result of confirming a nitric oxide release behavior of CaP—NO depending on a change in pH. […] When the pH was increased to 7.4 again, nitric oxide was not released, and as a result of observing the nitric oxide release behavior while repeatedly changing the pH, it was confirmed that when the pH was 5, nitric oxide was released."}
{"smiles": "CO[Si](CCCNCCN)(OC)OC", "note": "[AEATS, N-(2-aminoethyl)-3-aminopropyl trimethoxysilane]", "values": [{"measurement": "nitric oxide release behavior", "value": "a large amount of nitric oxide was released"}]}
